# Source: EP4692071A1, “PHOTOCHROMIC COMPOUND, NAPHTHOL DERIVATIVE, CURABLE COMPOSITION, OPTICAL ARTICLE, LENS, AND EYEGLASS” (TOKUYAMA CORPORATION, priority 2023, dated 2024)
# “And” between values parts separate entries of the source, which are not always exact repeats. Equal values may be shown once.
# Columns and labels:
# Assay type in all cases: physicochemical
# [1] = Maximum absorption wavelength (λmax) after color development, spectrophotometer MCPD3000; settings: for Maximum absorption wavelength: after color development
# Protocol: (§1) • [1] Maximum Absorption Wavelength (λmax): The maximum absorption wavelength after color development, measured using a spectrophotometer (instantaneous multichannel photodetector MCPD3000) manufactured by Otsuka Electronics Co., Ltd. was used as an indicator for the color tone during the color development. • [2] 23°C Color Optical Density (A23): A difference between an absorbancy measured after light irradiation at 23°C for 240 seconds {ε(240)} and an absorbancy without light irradiation ε(0) at the maximum absorption wavelength was used as an indicator for the color optical density. […] 35°C Color Optical Density (A35): A difference between an absorbancy measured after light irradiation at 35°C for 240 seconds {ε(240)} and an absorbancy without light irradiation ε(0) at the first and second absorption wavelengths was used as an indicator for the color optical density. […] 23°C color fading half-life [τ1/2 (sec.)]: A time required for the absorbancy of the sample at the maximum absorption wavelength to decrease to 1/2 of {ε(240)-ε(0)} when the light irradiation is terminated after the light irradiation at 23°C for 240 seconds, was used as an indicator for the color fading speed. The shorter this time, the higher the color fading speed. • [6] Residual rate (A90/A0×100): The obtained photochromic plastic lens was subjected to accelerated deterioration using a xenon weather meter X25 manufactured by Suga Test Instruments Co., Ltd. for 90 hours. Subsequently, the color optical density was evaluated before and after the test, then a color optical density before the test (A0) and a color optical density after the test (A90) were measured, and a ratio (A90/A0) was defined as a residual rate. The residual rate was used as an indicator for a color developing durability. The higher the residual rate, the higher the color developing durability.
# [2] = High-temperature color development rate (A35/A23×100), temperature dependency
# Protocol: as §1
# [3] = 35°C color optical density (A35): absorbancy difference ε(240)-ε(0) after 240 s light irradiation at 35°C; settings: 240 s irradiation
# Protocol: as §1
# [4] = Residual rate (A90/A0×100) after 90 h accelerated deterioration in xenon weather meter X25, color developing durability; settings: for Residual rate (%): xenon weather meter 90 hours; for Residual rate: after 90 h accelerated deterioration
# Protocol: as §1
# [5] = 23°C color optical density (A23): absorbancy difference ε(240)-ε(0) after 240 s light irradiation at 23°C; settings: 240 s irradiation
# Protocol: as §1
# [6] = binder sheet (binder method), urethaneurea resin photochromic layer between polycarbonate sheets, 0.25 mmol per 100 parts by mass resin
# [7] = photochromic laminate by coating method, 40 µm photochromic layer on thiourethane lens, 0.25 mmol compound per 100 g monomers
# [8] = photochromic laminate by coating method
# [9] = photochromic laminate by coating method, at the maximum absorption wavelength
# [10] = cured product by kneading method, 1 mm
# [11] = photochromic cured product, thickness 1 mm (kneading method)
# [12] = photochromic laminate prepared by coating method
Compound,Maximum absorption wavelength ([1]; binder sheet (binder method)) [nm],"Maximum absorption wavelength [1, 11] [nm]","Maximum absorption wavelength [1, 12]",A35/A23 *100 ([2]; binder sheet (binder method)) [%],"A35/A23 *100 [2, 11] [%]","A35/A23 *100 [2, 12]",Residual rate ([4]; binder sheet (binder method)) [%],"Residual rate [4, 11] [%]","Residual rate [4, 12] [%]",other results
CCCOc1ccc(C2(c3ccc(OCCC)cc3)C=Cc3c4c(c5cc(N(CCOC)c6ccccc6)c(OC)cc5c3O2)-c2ccccc2C42CCCCCCC2)cc1 [Example 6 Formula (47)],,,,,,,,,,"Maximum absorption wavelength (nm) [1, 6]: 499 nm; Maximum absorption wavelength (nm) [1, 7]: 499 nm; A35/A23 *100 (%) ([2]; binder sheet (binder method)): 71%; A35/A23 *100 (%) [2, 8]: 71%; A35 (-) ([3]; binder sheet (binder method)): 0.97 -; A35 (-) [3, 8]: 0.95 -; Residual rate (%) ([4]; binder sheet (binder method)): 94%; Residual rate (%) [4, 8]: 80%; A23 (-) ([5]; binder sheet (binder method)): 1.37 -; A23 (-) [5, 9]: 1.34 -"
COc1ccc(C2(c3ccc(OC)cc3)C=Cc3c4c(c5cc(N(C)c6ccccc6)c(OC)cc5c3O2)-c2ccccc2C4(C)C)cc1 [Example 1 Formula (28)],,,,,,,,,,"Maximum absorption wavelength (nm) [1, 6]: 501 nm; Maximum absorption wavelength (nm) ([1]; photochromic cured product by kneading method, 1 mm thick thiourethane, 0.106 mmol per 100 g monomers): 505 nm; Maximum absorption wavelength (nm) [1, 7]: 501 nm; A35/A23 *100 (%) ([2]; binder sheet (binder method)): 69%; A35/A23 *100 (%) [2, 10]: 70%; A35/A23 *100 (%) [2, 8]: 69%; A35 (-) ([3]; binder sheet (binder method)): 0.80 -; A35 (-) [3, 10]: 0.83 -; A35 (-) [3, 8]: 0.79 -; Residual rate (%) ([4]; binder sheet (binder method)): 95%; Residual rate (%) [4, 10]: 89%; Residual rate (%) [4, 8]: 83%; A23 (-) ([5]; binder sheet (binder method)): 1.17 -; A23 (-) [5, 10]: 1.19 -; A23 (-) [5, 9]: 1.15 -"
COCCCC1(CCCOC)c2ccccc2-c2c1c1c(c3cc(OC)c(N4CC(C)c5ccccc54)cc23)OC(c2ccc(OC)cc2)(c2ccc(OC)cc2)C=C1 (stereo not shown) [Formula (39A)],533,537,533 nm,75,76,75%,85,76,71,
CCCCCCOc1ccc(C2(c3ccc(OCCCCCC)cc3)C=Cc3c4c(c5cc(N6CCc7cc(OC)ccc76)c(OC)cc5c3O2)-c2ccc(-c3ccc(C(F)(F)F)cc3)cc2C42CC(C)(C)CC(C)(C)C2)cc1 [Formula (48A)],539,,539 nm,62,,62%,84,,69,
CCC1(CC)c2cc(C)ccc2-c2c1c1c(c3cc(C)c(N4CCc5ccccc54)cc23)OC(c2ccc(C)cc2)(c2ccc(OC)cc2)C=C1 (stereo not shown) [Formula (42A)],535,539,535 nm,75,76,75%,85,75,70,
CCC1(CC)CCC2(CC1)c1cc(-c3ccccc3)ccc1-c1c2c2c(c3cc(OC)c(N4CCc5ccccc54)cc13)OC(c1ccc(C)cc1)(c1ccc(N(C)c3ccccc3)cc1)C=C2 (stereo not shown) [Formula (60A)],,,535 nm and 595 nm,,,71%,,,69,
COCCOCCOCCC1(CCOCCOCCOC)c2ccccc2-c2c1c1c(c3cc(OC)c(N4CCc5cc(F)ccc54)cc23)OC(c2ccc(OC)cc2)(c2ccc(OC)cc2)C=C1 [Formula (50A)],522,526,522 nm,70,71,70%,84,76,70,
CCCOc1ccc(C2(c3ccc(OCCC)cc3)C=Cc3c4c(c5cc(N6CCc7ccccc76)c(OC)cc5c3O2)-c2ccc(-c3ccc(C)cc3)cc2C42CCCCCCC2)cc1 [Formula (35A)],531,535,531 nm,78,80,78%,90,80,75,
COc1ccc(C2(c3ccc(OC)cc3)C=Cc3c4c(c5cc(N6CCc7cc(C)ccc76)c(OC)cc5c3O2)-c2ccccc2C4(C)C)cc1 [Formula (52A)],535,539,535 nm,75,76,75%,92,82,76,
COc1ccc(C2(c3ccc(OC)c(OC)c3)C=Cc3c4c(c5cc(N6CCc7ccccc76)c(OC)cc5c3O2)-c2ccccc2C4(CCC(F)(F)F)CCC(F)(F)F)cc1 (stereo not shown) [Formula (67A)],527,531,527 nm,66,67,66%,83,75,73,
COc1ccc(C2(c3ccc(OC)cc3)C=Cc3c4c(c5cc(N6CCc7ccccc76)c(OC)cc5c3O2)-c2ccccc2C4(C)C)cc1 [Formula (28A)],532,536,532 nm,74,75,74%,88,79,74,
"COc1ccc(C2(c3ccc(OC)cc3)C=Cc3c4c(c5cc(N6CCc7ccccc76)c(-c6ccc(OC)cc6OC)cc5c3O2)-c2ccccc2C4(C)C)cc1 [Formula (I), reference compound]",522,526,522 nm,72,73,71%,84,74,71,
CCCC1(C)c2cc(Oc3ccccc3)ccc2-c2c1c1c(c3cc(OC)c(N4CCc5ccccc54)cc23)OC(c2ccc(OC)cc2)(c2ccc3c(c2)CCO3)C=C1 (stereo not shown) [Formula (70A)],535,540,536 nm,77,78,77%,82,77,71,
CCCOc1ccc(C2(c3ccc(OCCC)cc3)C=Cc3c4c(c5cc(N6CCc7cc(C(F)(F)F)ccc76)c(OC)cc5c3O2)-c2ccccc2C4(CCC)CCC)cc1 [Formula (54A)],,,592 nm and 486 nm,,,66% and 67%,,,69,
CCC1(CC)CCC2(CC1)c1cc(OC(F)(F)F)ccc1-c1c2c2c(c3cc(OC)c(N4CCc5ccccc54)cc13)OC(c1ccc(OC)cc1)(c1ccc(OCCCO[Si](C)(C)CC[Si](O[Si](C)(C)C)(O[Si](C)(C)C)O[Si](C)(C)C)cc1)C=C2 (stereo not shown) [Formula (74A)],522,526,522 nm,64,65,64%,83,77,72,
COc1ccc(C2(c3ccc(N(c4ccccc4)c4ccccc4)cc3)C=Cc3c4c(c5cc(N6CCc7ccccc76)c(OC)cc5c3O2)-c2ccccc2C42CCC3(CCCCC3)CC2)cc1 (stereo not shown) [Formula (57A)],548,,548 nm,70,,70%,80,,65,
COc1ccc(C2(c3ccc(N4CCOCC4)cc3)C=Cc3c4c(c5cc(N6CCc7ccccc76)c(C)cc5c3O2)-c2ccc(OC)cc2C4(CCCC(F)(F)F)CCCC(F)(F)F)cc1 (stereo not shown) [Formula (45A)],,,489 nm and 596 nm,,,67%,,,65,
CCCOc1ccc(C2(c3ccc(OC)cc3)C=Cc3c4c(c5cc(N6CCc7ccccc76)c(C)cc5c3O2)-c2ccc(-c3ccc(F)c(F)c3F)cc2C4(CCCCOC)CCCCOC)cc1F (stereo not shown) [Formula (78A)],523,,524 nm,68,,68%,82,,64,
